Source: publication PMC5442318, “Hundreds of dual-stage antimalarial molecules discovered by a functional gametocyte screen” (Nature Communications, 2017)
pIC50: −log10 of the molar value. Read-outs that look alike come from different tables or passages of the source.

Experiments:
[1] = system: P. falciparum stage V female gametocytes; assay: P. falciparum female gametocyte activation assay (Pf FGAA), 24 h or 48 h preincubation, Pfs25 expression readout; type: cell-based, Plasmodium falciparum NF54; conditions: mean, read-out: Gametocytes mean Pf FGAA IC50
Procedure, shortened: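 Female activation, triggered by xanthurenic acid and cooling, was scored by imaging Cy3-labelled anti-Pfs25 female gametes after 24 h at 26 °C. Beforehand, purified NF54 stage V gametocytes had been incubated with compound for either 24 h or 48 h (37 °C, 3% O2). Values are pIC50 from full-curve regression.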

[2] = system: P. falciparum stages IV–V gametocytes; assay: Gametocytocidal ATP-depletion assay (gametocyte ATP bioluminescence); type: cell-based, Plasmodium falciparum
Procedure, shortened: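 Read-out is luciferase luminescence of parasite ATP (BacTiter-Glo), standing in for viability. Double-purified mature stage IV–V gametocytes, 12,500 per well, were exposed 48 h at 37 °C in low-O2 gas; screening concentration 2 μM.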

[3] = system: HepG2 cells; assay: HepG2 cytotoxicity assay; type: cell-based
Procedure, shortened: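 Once incubation ended, the HepG2 plates were warmed to room temperature for 30 min alongside the CellTiter-Glo reagent. Luminescent signal was developed by reagent addition and stabilized for 10 min before plate reading.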

[4] = system: P. falciparum asexual blood stages; conditions: read-out: Pf Asexual blood stages XC50, cited from earlier work
[5] = P. falciparum female gametocytes
[6] = TCAMS asexual blood stage data, ref 1 (Gamo, F. J. et al., Nature 465, 305-310, 2010)
[7] = TCAMS data, ref 1 (Gamo et al., 2010)
[8] = P. falciparum female gametocyte activation assay

Structure (SMILES) | pIC50 [1, 5] | pIC50 [1] | pIC50 [1, 8] | Gametocytes mean ATP inhibition at 2µM [2] [%] | HepG2 cells mean TOX50 ([3]; HepG2 cells; mean) [µM] | pIC50 [4, 6] | Gametocytes mean ATP inhibition at 2µM (%) [2] [%] | HepG2 cells mean TOX50 ([3]; mean) [µM] | pIC50 [4, 7] | HepG2 cells mean TOX50 ([3]; mean; HepG2 cells) [µM]
CCN(CC)CCCn1c(N)c(-c2nc3ccccc3[nH]2)c2nc(C#N)c(C#N)nc21 [TCMDC-123680] | 6.13 |  |  | 86.44 | 4.27 | 6.57 |  |  |  | 
COc1cc2c(cc1CCNCCCCNCCc1cc3c(cc1OC)CCCC3)CCCC2.CS(=O)(=O)O [TCMDC-137319] |  | 6.05 |  |  |  |  | 88.42 | 1.86 | 6.00 | 
COc1ccc(-c2csc3ncnc(Cl)c23)cc1 [TCMDC-123805] | 5.84 |  |  | -0.54 | 0.55 | 6.11 |  |  |  | 
SC(=Nc1ccc(Cl)c(Cl)c1)NN=Cc1ccccn1 [TCMDC-125522] | 7.10 |  |  | 64.79 | 3.47 | 6.11 |  |  |  | 
Cl.Clc1ccc(CNCCCCCCCNCc2ccc(Cl)c(Cl)c2)cc1Cl [TCMDC-138075] |  | 6.15 |  |  |  |  | -3.08 | 4.57 | 6.43 | 
NCCCNc1nc(Nc2ccc(C(F)(F)F)cc2F)c2c(=O)[nH]ccc2n1.O=C(O)C(F)(F)F [TCMDC-135056] | 5.80 |  |  | -14.04 | 9.30 | 5.98 |  |  |  | 
CC(C)(C)c1ccc(CN2CCC(CNC(=O)c3cc(-c4ccccc4C(F)(F)F)cs3)C2)cc1.O=C(O)C(F)(F)F (stereo not shown) [TCMDC-134441] | 6.16 |  |  | -17.21 | 9.77 | 5.91 |  |  |  | 
C=CCOc1ccc2ccccc2c1CNCCCCCCNCc1c(OCC=C)ccc2ccccc12.CS(=O)(=O)O [TCMDC-137340] |  | 6.15 |  |  |  |  | 58.99 | 1.93 | 6.07 | 
O=C(Nc1ccc(Cl)cc1)c1cc(Cl)cc2nc(C(F)(F)F)[nH]c12 [TCMDC-141586] |  |  | 5.77 | 39.06 |  | 6.89 |  |  |  | 2.82
CN(C)c1ccc(-c2csc(C(=O)NCC3CCN(Cc4ccc(C(C)(C)C)cc4)C3)c2)cc1.O=C(O)C(F)(F)F (stereo not shown) [TCMDC-134449] | 6.22 |  |  | -20.17 | 7.24 | 6.00 |  |  |  | 
Nc1ccc2[nH]cc(C3CCN(CC4CCN(C(=O)/C=C/c5ccc(Cl)c(Cl)c5)CC4)CC3)c2n1 [TCMDC-140061] |  | 5.75 |  |  |  |  | -11.61 | 5.89 | 6.15 | 
COc1ccc2c(OC)c(CNCCCCCCNCc3ccc4cc(OC)ccc4c3OC)ccc2c1.CS(=O)(=O)O [TCMDC-137953] |  | 6.00 |  |  |  |  | 2.77 | 2.11 | 6.04 | 
CC(C)NCc1ccc(OCc2cccc(COc3ccc(CNC(C)C)cc3I)c2)c(I)c1.Cl [TCMDC-137259] |  | 5.88 |  |  |  |  | 81.19 | 1.64 | 7.05 | 
COc1cc2ccccc2c(OC)c1CCNCCCCNCCc1c(OC)cc2ccccc2c1OC.CS(=O)(=O)O [TCMDC-137842] |  | 5.91 |  |  |  |  | 60.27 | 4.17 | 6.05 | 
COc1cc2nc(NCc3cccc(CNC(=O)c4ccc(-c5ccc(C(C)=O)cc5)cc4)c3)nc(N)c2cc1OC.O=C(O)C(F)(F)F [TCMDC-138177] |  | 5.33 |  |  |  |  | -19.05 | 6.82 | 6.92 | 
CCCCCCCN1CC[C@@H](CCCc2ccnc3ccc(OCCN4CCNCC4)cc23)[C@@H](CC)C1.Cl [TCMDC-139817] |  | 5.73 |  |  |  |  | 8.71 | 4.90 | 6.11 | 
CCn1c(Sc2ccc([N+](=O)[O-])c(C#N)c2)nnc1-c1cccc(Cl)c1 [TCMDC-135234] | 5.87 |  |  | 46.72 | 18.80 | 6.06 |  |  |  | 
C[C@H](Cc1ccc(Oc2ccc(C[C@@H](C)NC[C@H](O)c3cccc(Cl)c3)cc2)cc1)NC[C@H](O)c1cccc(Cl)c1.Cl [TCMDC-131560] | 6.14 |  |  | 70.55 | 2.04 | 6.25 |  |  |  | 
CCCCN(CCCC)/C(=N/C(=N)NCc1ccc(Cl)c(Cl)c1)NCCCCCCN/C(=N\C(=N)NCc1ccc(Cl)c(Cl)c1)N(CCCC)CCCC [TCMDC-131821] | 5.60 |  |  | 63.54 | 13.96 | 6.40 |  |  |  | 
CC(C)(C)c1cc(NC2CC2)nc(-c2ccccn2)n1 [TCMDC-125826] | 6.92 |  |  | 84.45 | >100 | 6.14 |  |  |  | 

Second part, led by results:

pIC50 [1, 5] | pIC50 [1] | pIC50 [1, 8] | Structure (SMILES) | Gametocytes mean ATP inhibition at 2µM [2] [%] | HepG2 cells mean TOX50 ([3]; HepG2 cells; mean) [µM] | pIC50 [4, 6] | Gametocytes mean ATP inhibition at 2µM (%) [2] [%] | HepG2 cells mean TOX50 ([3]; mean) [µM] | pIC50 [4, 7] | HepG2 cells mean TOX50 ([3]; mean; HepG2 cells) [µM]
5.81 |  |  | CCCC(=O)NC(c1ccc(C(C)C)cc1)c1ccc2cccnc2c1O (stereo not shown) [TCMDC-123884] | 63.50 | >100 | 6.03 |  |  |  | 
 | 5.15 |  | CN(C)CCN(C)Cc1cccc(-c2ccc3c(Nc4ccc(F)cc4Cl)ccnc3c2)c1 [TCMDC-138416] |  |  |  | 39.96 | 6.10 | 6.96 | 
 | 5.70 |  | O=C(NCCCCN1CCC(c2ccc3c(c2OCCN2CCCC2)CCCC3)CC1)c1ccc(-c2ccc(C(F)(F)F)cc2)cc1 [TCMDC-138768] |  |  |  | -10.59 | 5.39 | 6.35 | 
 | 6.07 |  | Cl.c1ccc2c(NCCCCCCCCCNc3ccnc4ccccc34)ccnc2c1 [TCMDC-137750] |  |  |  | 35.04 | 1.50 | 6.92 | 
 |  | 5.38 | CCn1c2ccccc2c2cc(C=NN=c3cc(C)[nH]c4ccccc34)ccc21 [TCMDC-142186] | 36.64 |  | 6.51 |  |  |  | 5.82
 | 5.86 |  | CCOc1ccccc1CCNC(C)Cc1ccc(C(=O)Nc2ccc(CC(C)NCCc3cccc(Cl)c3)cc2)cc1 (stereo not shown) [TCMDC-139805] |  |  |  | 17.68 | 3.24 | 6.27 | 
 | 5.84 |  | Oc1ccc2[nH]cc(C3CCN(CCCNCc4ccc(-c5ccccc5)cc4)CC3)c2c1 [TCMDC-139047] |  |  |  | -20.32 | 5.62 | 6.14 | 
 | 5.65 |  | CCc1ccc(C2CCN(CCCCNC(=O)c3ccc(NC(=O)c4ccc(Cl)cc4)cc3)CC2)c(OCCO)c1 [TCMDC-138703] |  |  |  | -4.56 | 5.37 | 5.86 | 
5.81 |  |  | OC1CCN(c2cc(-c3ccccn3)nc(-c3ccccn3)n2)CC1 [TCMDC-123786] | 104.88 | 14.14 | 5.98 |  |  |  | 
 | 5.71 |  | CCCCN(CCCC)CCCCNc1c2ccc(Cl)cc2nc2ccc(OC)cc12.Cl [TCMDC-137460] |  |  |  | 11.49 | 4.73 | 6.74 | 
 | 6.15 |  | COc1ccc2ccccc2c1CNCCCCCCNCc1c(OC)ccc2ccccc12.Cl [TCMDC-137915] |  |  |  | 20.95 | 4.22 | 6.15 | 
 | 7.52 |  | c1cc(Nc2nc(-c3ccc(-c4csc(Nc5ccncc5)n4)cc3)cs2)ccn1 [TCMDC-139725] |  |  |  | 93.92 | 2.26 | 6.92 | 
5.94 |  |  | CCCC(N)C(=O)NC1CCN(c2c(F)c(N)c3c(=O)c(C(=O)O)cn4c3c2Oc2ccccc2-4)C1.Cl (stereo not shown) [TCMDC-125701] | 0.82 | 1.61 | 6.44 |  |  |  | 
6.85 |  |  | c1ccc2sc(Sc3ncnc4sccc34)nc2c1 [TCMDC-125539] | 69.68 | >100 | 6.14 |  |  |  | 
5.10 |  |  | N=C(/N=C(/NCCCCCCN/C(=N\C(=N)Nc1ccc(Cl)cc1)N1CCCCC1)N1CCCCC1)Nc1ccc(Cl)cc1 [TCMDC-131811] | 49.82 | 44.23 | 6.59 |  |  |  | 
6.00 |  |  | CCN1CCN(c2ccc(Nc3c4ccccc4nc4ccccc34)cc2)CC1 [TCMDC-124255] | 12.43 | 4.57 | 6.14 |  |  |  | 
5.34 |  |  | CCOc1ccc2nc3cc(NC(=O)c4ccco4)ccc3c(N)c2c1 [TCMDC-125004] | 91.77 | 25.15 | 6.10 |  |  |  | 
